# Assay results from the supplement of paper PMC11208160.
# Experiment: recombinant barcode read abundance after kanamycin selection (control-corrected) (log10(CPM+1)); higher = more efficient recombination; sequences stand for … in AGTGCAGAGAAAATCGGCCAGTTTTCTCTGCCTGCAGTCCGCATGCCGT…AGATTTATGCAGCGGACTGCCTTTCTCCCAAAGTGATAAACCGGACAGTATCATGGACCGGTTTTCCCGGTAATCCGTATTTGCAAGGTTGGTTTCACT; site = the 11-nt target
# Outline: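 For this pooled screen, each oligo contained a promoter, a target, a barcode and the J23119-driven first 104 bases of the bridge RNA. Gibson cloning placed it into a vector supplying the remaining 73 bp and a T7-inducible recombinase, and the pool was co-electroporated into E. coli with a donor plasmid. Recombination efficiency is derived from barcode counts per million at recombinant junctions after averaging and control correction, and is expressed on a log scale as log10(CPM+1), with selection on chloramphenicol/ampicillin/kanamycin plus 0.1 mM IPTG against a chloramphenicol/ampicillin LB agar control.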
# 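Further: IS621 recombinase and bridge RNA in Escherichia coli cells.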
row,Sequence,recombinant barcode read abundance (log10)
1,CAAACCGCTTGGGTTCTAACCTGTTGCCT (site CAAACCGCTAG),1.14
2,CAAACCGCTTGGGTTCTAACCTGTTGCCT (site CCAACCGCTAG),0.0884
3,CAAACCGCTTGGGTTCTAACCTGTTGCCT (site CGAACCGCTAG),0.356
4,CAAACCGCTTGGGTTCTAACCTGTTGCCT (site CTAACCGCTAG),0.117
5,CAAACTCCTTGGGTTCTAACCTGTTGCGT (site CAAACTCCTAA),0.124
6,CAAACTCCTTGGGTTCTAACCTGTTGCGT (site CAAACTCCTAC),0.951
7,CAAACTCCTTGGGTTCTAACCTGTTGCGT (site CAAACTCCTAG),0.0424
8,CAAACTCCTTGGGTTCTAACCTGTTGCGT (site CAAACTCCTAT),0.0528
9,CAAAGATCTTGGGTTCTAACCTGTTGCCT (site CAAAGATCTAG),0.821
10,CAAAGATCTTGGGTTCTAACCTGTTGCCT (site CCAAGATCTAG),0
11,CAAAGATCTTGGGTTCTAACCTGTTGCCT (site CGAAGATCTAG),0.023
12,CAAAGATCTTGGGTTCTAACCTGTTGCCT (site CTAAGATCTAG),0.165
13,CAAATAACTTGGGTTCTAACCTGTTGCCT (site CAAATAACTAG),0.461
14,CAAATAACTTGGGTTCTAACCTGTTGCCT (site CAGCTAACTAG),0.134
15,CAAATCCCTTGGGTTCTAACCTGTTGCGT (site ATCGAGTCTTG),0.174
16,CAAATCCCTTGGGTTCTAACCTGTTGCGT (site CAAATCCCTAC),2.08
17,CAACACTCTTGGGTTCTAACCTGTTGCCT (site CAACACTCTAG),2.43
18,CAACACTCTTGGGTTCTAACCTGTTGCCT (site CCACACTCTAG),0.452
19,CAACACTCTTGGGTTCTAACCTGTTGCCT (site CGACACTCTAG),0.102
20,CAACACTCTTGGGTTCTAACCTGTTGCCT (site CTACACTCTAG),0.446
21,CAACCGTCTTGGGTTCTAACCTGTTGCCT (site CAACCGACTAG),0
22,CAACCGTCTTGGGTTCTAACCTGTTGCCT (site CAACCGCCTAG),0.439
23,CAACCGTCTTGGGTTCTAACCTGTTGCCT (site CAACCGGCTAG),0.0528
24,CAACCGTCTTGGGTTCTAACCTGTTGCCT (site CAACCGTCTAG),1.33
25,CAACGACCTTGGGTTCTAACCTGTTGCCT (site AAACGACCTAG),0.172
26,CAACGACCTTGGGTTCTAACCTGTTGCCT (site CAACGACCTAG),1.75

row,Sequence,recombinant barcode read abundance (log10)
1,CAACGACCTTGGGTTCTAACCTGTTGCCT (site GAACGACCTAG),0.171
2,CAACGACCTTGGGTTCTAACCTGTTGCCT (site TAACGACCTAG),0.166
3,CAACGAGCTTGGGTTCTAACCTGTTGCCG (site CAACGAGCTCG),0.506
4,CAACGAGCTTGGGTTCTAACCTGTTGCCG (site CACCGAGCTCG),0.186
5,CAACGAGCTTGGGTTCTAACCTGTTGCCG (site CAGCGAGCTCG),0
6,CAACGAGCTTGGGTTCTAACCTGTTGCCG (site CATCGAGCTCG),0.218
7,CAACGGCCTTGGGTTCTAACCTGTTGCCT (site CAAAGGCCTAG),0
8,CAACGGCCTTGGGTTCTAACCTGTTGCCT (site CAACGGCCTAG),0.796
9,CAACGGCCTTGGGTTCTAACCTGTTGCCT (site CAAGGGCCTAG),0.55
10,CAACGGCCTTGGGTTCTAACCTGTTGCCT (site CAATGGCCTAG),0.0566
11,CAACTAGCTTGGGTTCTAACCTGTTGCAT (site CAACTAGCTAT),0.691
12,CAACTAGCTTGGGTTCTAACCTGTTGCAT (site TTGTACACTGA),0.028
13,CAAGCACCTTGGGTTCTAACCTGTTGCTT (site CAAACACCTAA),0.121
14,CAAGCACCTTGGGTTCTAACCTGTTGCTT (site CAACCACCTAA),0.0852
15,CAAGCACCTTGGGTTCTAACCTGTTGCTT (site CAAGCACCTAA),0.187
16,CAAGCACCTTGGGTTCTAACCTGTTGCTT (site CAATCACCTAA),0.338
17,CAAGGTCCTTGGGTTCTAACCTGTTGCGG (site CAAGGTCCTCC),2.68
18,CAAGGTCCTTGGGTTCTAACCTGTTGCGG (site GTTACCTCTAG),0.194
19,CAAGTGGCTTGGGTTCTAACCTGTTGCCT (site CAAGTAGCTAG),0.417
20,CAAGTGGCTTGGGTTCTAACCTGTTGCCT (site CAAGTCGCTAG),0.0501
21,CAAGTGGCTTGGGTTCTAACCTGTTGCCT (site CAAGTGGCTAG),1.21
22,CAAGTGGCTTGGGTTCTAACCTGTTGCCT (site CAAGTTGCTAG),0.721
23,CAATATCCTTGGGTTCTAACCTGTTGCCT (site CAATATCCTAG),1.09
24,CAATATCCTTGGGTTCTAACCTGTTGCCT (site CACTATCCTAG),0.0197
25,CAATATCCTTGGGTTCTAACCTGTTGCCT (site CAGTATCCTAG),0.143
26,CAATATCCTTGGGTTCTAACCTGTTGCCT (site CATTATCCTAG),0.0807

row,Sequence,recombinant barcode read abundance (log10)
1,CAATCTACTTGGGTTCTAACCTGTTGCCT (site CAACCTACTAG),0.391
2,CAATCTACTTGGGTTCTAACCTGTTGCCT (site CAATCTACTAG),0.0558
3,CAATTACCTTGGGTTCTAACCTGTTGCTT (site CAATTACCTAA),0.682
4,CAATTACCTTGGGTTCTAACCTGTTGCTT (site GCGCCCTCTCG),0.0793
5,CACAAACCTTGGGTTCTAACCTGTTGCAG (site AGATGTGCTAG),0.054
6,CACAAACCTTGGGTTCTAACCTGTTGCAG (site CACAAACCTCT),1.17
7,CACAAGTCTTGGGTTCTAACCTGTTGCAG (site CACAAGTCTCG),0.519
8,CACAAGTCTTGGGTTCTAACCTGTTGCAG (site CACAAGTCTCT),2
9,CACAAGTCTTGGGTTCTAACCTGTTGCCG (site CACAAGTCTCG),0.657
10,CACAAGTCTTGGGTTCTAACCTGTTGCCG (site CACAAGTCTCT),0.182
11,CACACACCTTGGGTTCTAACCTGTTGCGT (site CACAATCCTAC),0.189
12,CACACACCTTGGGTTCTAACCTGTTGCGT (site CACACACCTAC),2.86
13,CACACGGCTTGGGTTCTAACCTGTTGCCT (site CACACCGCTAG),0.246
14,CACACGGCTTGGGTTCTAACCTGTTGCCT (site CACACGGCTAG),0.518
15,CACACTACTTGGGTTCTAACCTGTTGCTT (site CACACTACTAA),0.0581
16,CACACTACTTGGGTTCTAACCTGTTGCTT (site TATACTACTAA),0.101
17,CACAGCACTTGGGTTCTAACCTGTTGCCT (site CACAACACTAG),0.065
18,CACAGCACTTGGGTTCTAACCTGTTGCCT (site CACACCACTAG),0.00856
19,CACAGCACTTGGGTTCTAACCTGTTGCCT (site CACAGCACTAG),1.44
20,CACAGCACTTGGGTTCTAACCTGTTGCCT (site CACATCACTAG),0.0547
21,CACAGGCCTTGGGTTCTAACCTGTTGCAG (site CACAGGCCTCT),1.98
22,CACAGGCCTTGGGTTCTAACCTGTTGCAG (site TGTTCAGCTAG),0.0715
23,CACATACCTTGGGTTCTAACCTGTTGCAT (site CACATACCTAT),1.87
24,CACATACCTTGGGTTCTAACCTGTTGCAT (site CACCTTCCTAT),0.0683
25,CACATCACTTGGGTTCTAACCTGTTGCCT (site CACAACACTAG),0.122
